Data set [1] can be described thus: Maximum soluble amount of bulk drug for intravenous dosing. The class given is physicochemical. The following applies: expressed as dose.
In data set [2] the test system is model mouse of myocardial ischemia-reperfusion. As to the kind of experiment: Selective drug delivery to ischemia reperfusion sites, fluorescence of heart specimens. It counts as in vivo. Particulars: stereo microscope, heart specimen 24 h after reperfusion; iv at reperfusion, FITC 40 mg/kg or FITC-NP 800 mg/kg. Here is the method: Mice (C57BL/6J, 8 to 10 weeks of age, male, 25 to 30 g, n=3) were intraperitoneally administered with pentobarbital sodium (60 mg/kg) or subjected to inhalation anesthesia with isoflurane. During the procedure, respiration was controlled by a mechanical ventilator (tidal volume: 0.5 ml, respiratory rate: 140 breaths/min); the mouse was kept warm using a heating pad so that the rectal temperature was maintained at 36.8° C. to 37.2° C. An incision was made horizontally at the level of the third to fourth intercostal space; and the pericardium was opened. […] ST change in electrocardiogram and a change in the color of cardiac muscles were observed and ischemia in the cardiac muscles was checked. The silicone tube was removed 30 minutes after the ligature. Reperfusion was carried out and at the same time 0.1 to 0.2 ml of solution of test substance was intravenously injected. The chest was closed using 5-0 silk suture; and then extubation was performed after spontaneous breathing was confirmed. The intravenously-injected test substance is FITC (40 mg/kg) or FITC-NP (800 mg/kg). […]
Twenty-four hours after the reperfusion, the mouse was anesthetized again and endotracheal intubation was conducted, followed by thoracotomy. […] In evaluation of the specimen, SMZ1500 (manufactured by Nikon Corporation) was employed as an optical and fluorescence microscope.

The test system is the same in data set [3]. As to the kind of experiment: Infarct size (area of infarct region/area of AAR) after myocardial ischemia-reperfusion. It counts as in vivo. Particulars: iv. The procedure: Mice (C57BL/6J, 8 to 10 weeks of age, male, 25 to 30 g, n=3) were intraperitoneally administered with pentobarbital sodium (60 mg/kg) or subjected to inhalation anesthesia with isoflurane. During the procedure, respiration was controlled by a mechanical ventilator (tidal volume: 0.5 ml, respiratory rate: 140 breaths/min); the mouse was kept warm using a heating pad so that the rectal temperature was maintained at 36.8° C. to 37.2° C. An incision was made horizontally at the level of the third to fourth intercostal space; and the pericardium was opened. […] ST change in electrocardiogram and a change in the color of cardiac muscles were observed and ischemia in the cardiac muscles was checked. […]
Twenty-four hours after the reperfusion, the mouse was anesthetized again and endotracheal intubation was conducted, followed by thoracotomy. […] In evaluation of the specimen, SMZ1500 (manufactured by Nikon Corporation) was employed as an optical and fluorescence microscope. […]
Each of the sections was stained in the same manner as described above; and the areas of infarct (region shown in white) and AAR (region shown in red) were each measured and the area of the infarct region/the area of AAR was calculated. […]
Each of the sections was stained in the same manner as described above; and the areas of infarct and AAR were each measured and the area of the infarct region/the area of AAR was calculated. […]

The structures appear in SMILES notation.

As to `CSc1ccc(C(=O)N[C@H]2CCCC[C@H]2NC(=O)CNC(=O)c2cc(C(F)(F)F)ccc2NC(=O)NC(C)C)cc1` (relative stereo) [BMS CCR2 22, 2-[(Isopropylaminocarbonyl)amino]-N-[2-[[cis-2-[[4-(methylthio)benzoyl]amino]cyclohexyl]amino]-2-oxoethyl]-5-(trifluoromethyl)benzamide], the maximum soluble amount in data set [1] came out at 1.0 mg/kg.
For the compound `O=C1OC2(c3ccc(O)cc3Oc3cc(O)ccc32)c2ccc(N=C=S)cc21` [FITC], the “fluorescence of FITC in the infarction site” value in data set [2] is “not observed”.
`CCCCC1=NC2(CCCC2)C(=O)N1Cc1ccc(-c2ccccc2-c2nnn[nH]2)cc1` [irbesartan] came in with a maximum soluble amount in data set [1] of 3.0 mg/kg. For the same compound, the “reduction of the infarct size” value in data set [3] (irbesartan dosed at 3.0 mg/kg) is given as “drastic reduction of the infarct size was not seen”.
The compound `CCc1ccc(CCOc2ccc(CC3SC(=O)NC3=O)cc2)nc1` (stereo not shown) [pioglitazone] yielded a maximum soluble amount in data set [1] of 3.0 mg/kg.
Regarding `O=C(O)C[C@H](O)C[C@H](O)/C=C/c1c(C2CC2)nc2ccccc2c1-c1ccc(F)cc1` [pitavastatin], in data set [1], the maximum soluble amount is listed as 10 mg/kg. In data set [3] (pitavastatin dosed at 10 mg/kg), the “reduction of the infarct size” value is “drastic reduction of the infarct size was not seen”.

The values above are taken from US20170202780A1, “PHARMACEUTICAL COMPOSITION” (SENTAN Pharma Inc., priority 2014, published 2017).
